Experiments:
CUTO9 cells = assay: wound-healing assay in CUTO9 cells; format: cell-based, human; settings: for suppression of cell migration (wound closure) / impact on wound closure: 24 hours; for inhibition at 1 µM: Homo sapiens, 24 h, read-out: inhibition of wound closure
[1] = test system: YAP1 phosphorylation at S127; assay: immunoblot analysis of Hippo signaling in CUTO9 cells; format: cell-based, human; settings: 2 hours, brigatinib, lorlatinib 3 μM each, MRT67307 1 μM
MARK2/3 = assay: immunoblotting of cross-competition pulldowns; format: binding, human; settings: CUTO9 cells pre-treated with 2.5 μM TKI for 24 hours, immunoblot
A549 NSCLC cells = assay: wound-healing assay in A549 cells; settings: for wound closure inhibition: A549 cells (no EML4-ALK, mutant KRAS), 48 hours
MARK3 = settings: read-out: previously reported in vitro IC50; cited from earlier work
MARK2 = settings: read-out: reported in vitro IC50; cited from earlier work
[2] = cited from earlier work

## O=C(NCCCNc1nc(Nc2cccc(CN3CCOCC3)c2)ncc1C1CC1)C1CCC1 [MRT67307]
CUTO9 cells; CUTO9 cells, 1 μM
  reduction of cell migration: approximately 25%
CUTO9 cells; CUTO9 cells, 3 μM
  reduction of cell migration: ~40%
[1]
  phosphorylation of YAP1 at S127: induced phosphorylation of YAP1 at S127

## CCc1cc2c(cc1N1CCC(N3CCOCC3)CC1)C(C)(C)c1[nH]c3cc(C#N)ccc3c1C2=O [alectinib]
CUTO9 cells; CUTO9 cells, 3 μM
  suppression of cell migration (wound closure): ~45%
CUTO9 cells
  inhibition at 1 µM: ~30%
MARK2/3
  competition for binding of MARK2/3 to i-brigatinib beads: more completely competed
A549 NSCLC cells
  wound closure inhibition: wound closure inhibition observed

## COc1cc(N2CCC(N3CCN(C)CC3)CC2)ccc1Nc1ncc(Cl)c(Nc2ccccc2P(C)(C)=O)n1 [brigatinib]
CUTO9 cells; CUTO9 cells, 3 μM
  suppression of cell migration (wound closure): approximately 70%
CUTO9 cells
  inhibition at 1 µM: ~40%
[1]
  phosphorylation of YAP1 at S127: induced phosphorylation of YAP1 at S127
MARK2/3
  competition for binding of MARK2/3 to i-brigatinib beads: more completely competed
EML4-ALK
  competition for EML4-ALK: strongest extent of competition
MARK3
  IC50: 127 nM
MARK2
  IC50: 93 nM
[2]; clinical
  reported clinically relevant concentration: 2.9 µM
[2]; read-out: plasma Cmax, reported, no reference given
  Cmax: 2500 nM
A549 NSCLC cells
  wound closure inhibition: wound closure inhibition observed

## C[C@@H](Oc1cc(-c2cnn(C3CCNCC3)c2)cnc1N)c1c(Cl)ccc(F)c1Cl [crizotinib]
CUTO9 cells; CUTO9 cells
  impact on wound closure: no impact on wound closure

## CNC(=O)c1ccc(Nc2ncc(C(F)(F)F)c(NCc3nccnc3N(C)S(C)(=O)=O)n2)cc1 [defactinib]
CUTO9 cells; CUTO9 cells
  effects on migration: minor, but notable effects
A549 NSCLC cells; A549 cells
  effects on migration: minor, but notable effects

## C[C@H]1Oc2cc(cnc2N)-c2c(nn(C)c2C#N)CN(C)C(=O)c2ccc(F)cc21 [lorlatinib]
CUTO9 cells; CUTO9 cells
  impact on wound closure: no impact on wound closure
[1]
  phosphorylation of YAP1 at S127: not observed
